Data on one molecule can be found in patent US7635693B2, “Methods for preventing and treating cancer using N-thiolated β-lactam compounds and analogs thereof” (University of South Florida, priority 2002, dated 2009).

Assay [1] concerns cytochrome C. Conditions: Jurkat T cells, 50 μM, 2 to 4 hours.
Method: At each time point, cells were washed twice with PBS, resuspended in a hypotonic buffer containing 20 mM HEPES (pH 7.5), 1.5 mM MgCl2, 5 mM KCl and 1 mM DTT, and incubated on ice for 10 min. The cells are dounced 30 times, and the lysate is centrifuged at 2,000×g for 10 min. The supernatant is collected and centrifuged again at the same condition. The resulting supernatant is then centrifuged at 20,500×g for 30 min, followed by collection of both the supernatant (cytosol) and pellet fractions. The pellet is washed twice with a buffer containing 210 mM mannitol, 70 mM sucrose, 5 mM Tris-HCl (pH 7.5) and 1 mM EDTA, and resuspended in the lysis buffer as the mitochondria fraction.
Assay [2] relates to Jurkat T cells. The assay is described as follows: TUNEL assay (DNA strand breaks), Jurkat T cells. It counts as cell-based, human. Conditions: 50 μM. As to the method:
Terminal deoxynucleotidyl transferase-mediated UTP nick end labeling (TUNEL) was performed to determine the extent of DNA strand breaks. TUNEL assay was performed with an APO-Direct kit per the manufacturer's instructions. In brief, cells are fixed in 1% paraformaldehyde and ethanol at […] overnight and then permeabilized with Proteinase K. After permeabilization, Fluorescein conjugated dNTP's and TdT enzyme (Terminal Deoxynucleotidyl Transferase) are added to the cells. The TdT enzyme is then able to label free ends of DNA with Fluorescein conjugated dNTPs that could then be detected by flow cytometry.
The assay was performed following manufacturer's instruction using the APO-Direct kit. In brief, the harvested cells were fixed in 1% paraformaldehyde for 15 min on ice, washed with PBS, and then fixed again in 70% ethanol at −20° C. overnight. The cells were then incubated in DNA labeling solution (containing terminal deoxynucleotidyl transferase (TdT) enzyme, fluorescein-conjugated dUTP and reaction buffer) for 90 min at 37° C. After removing the DNA labeling solution by rinsing cells with Rinsing Buffer, the cells were incubated with the Propidium Iodide/RNase A solution, incubated for 30 min at room temperature in the dark, and then analyzed by flow cytometry within 3 h of staining.

For assay [3], the system named is PARP. The assay is described as follows: PARP cleavage, Western blot, Jurkat T cells. In kind it is cell-based, human. From the text: A library of β-lactam analogs was screened for their ability to induce apoptosis. […] This is followed by preparation of cell lysates and measurement of apoptosis-specific caspase-3 activation (by cell-free caspase-3 activity assay) and PARP cleavage (by Western blotting).
Background: In western blotting, separated proteins are transferred to a membrane and probed.

Assay [4] relates to caspase-3. The conditions noted are these: LNCaP cells, 48 h, 50 μM. Here is the method: To measure cell-free caspase-3 activity, whole cell extracts (20-30 μg) from untreated or treated LNCaP cells were incubated with 20 μM of the fluorogenic substrate caspase-3/caspase-7 (Ac-DEVD-AMC) for 30 min at 37° C. in 100 μl of assay buffer (50 mM Tris, pH 8.0).
For assay [5], the system named is p38 MAP kinase. Description: p38 phosphorylation, Western blot, Jurkat T cells. It counts as cell-based, human. From the text:
It has been shown that multiple stimuli including DNA damaging agents induce apoptosis via activation of p38 MAP kinase (Kummer J L, et al., 1997, Apoptosis induced by withdrawal of trophic factors is mediated by p38 mitogen-activated protein kinase. J. Biol Chem 272:20490-4; Sanchez-Prieto R, et al., 2000, A role for the p38 mitogen-acitvated protein kinase pathway in the transcriptional activation of p53 on genotoxic stress by chemotherapeutic agents. Cancer Res 60:2464-72). […] The levels of Tyr-182 phosphorylated p38 protein were increased by 3-fold at 2 h and reached its maximum (˜9-fold) by 6 h (FIG. 8A). In has been shown that dual phosphorylation of p38 on Tyr-182 and Thr-180 activates this kinase (Raingeaud J, et al., 1995, Pro-inflammatory cytokines and environmental stress cause p38 mitogen-activated protein kinase activation by dual phosphorylation on tyrosine and threonine. J Biol Chem 270:7420-6). […] Therefore, lactam 1-induced DNA damage triggered activation of p38 before S population accumulation and apoptosis induction.

Consider `COC1C(=O)N(SC)C1c1ccccc1Cl` (racemic) [lactam 1], for which the “levels of cytosolic cytochrome C” value in assay [1] is listed as “significantly increased”. In assay [1], the “levels of mitochondrial cytochrome C” value was “decreased”. The “DNA strand breaks (TUNEL)” value in assay [2] (1 hour) is reported as “did not induce DNA strand breaks”. The “cell population positive for DNA strand breaks (TUNEL)” value in assay [2] (2 hour) was “more than half of the cell population”. In assay [2] (24 h), this molecule displayed a TUNEL-positive cells of 66%. Besides, the PARP cleavage result in assay [3] (10 μM, 24 h) is “induced apoptosis-specific PARP cleavage fragment p85”; in assay [3] (50 μM, 8 hours) it was “greatest potency”. Also, in assay [3] (25 μM, 24 h), the “levels of PARP cleavage fragment p85” value was “further increased”. For the same molecule, the “time at which PARP cleavage was first detected” value in assay [3] (30 μM) was determined as 3 h. The “time at which PARP cleavage fragment p85 appears” value in assay [3] (50 μM) amounted to 4 h. Moreover, the “level of PARP cleavage relative to that by 50 μM of lactam 47” value in assay [3] (50 μM, 12 h) is on record as approximately 50%. Besides, the PARP degradation entry in assay [3] (50 μM, 24 h) was “PARP degradation was further increased”. Further, the “p85 PARP fragment” value in assay [3] (8 hours, 20 μM) is recorded as “Low levels”; in assay [3] (8 hours, 50 μM), “significantly increased”; in assay [3] (8 hours, 30 and 40 μM) it was “further increased”. Further, the “intact PARP protein and p85 PARP fragment” value in assay [3] (8 hours, 60 μM) was “almost complete degradation”. For the same molecule, the “increase in caspase-3 activity over control” value in assay [4] came out at 2.5 fold. Besides, the “increase of Tyr-182 phosphorylated p38 protein” value in assay [5] (50 μM, 2 h) is reported as 3 fold. Also, the “increase of Tyr-182 phosphorylated p38 protein (maximum)” value in assay [5] (50 μM, 6 h) is approximately 9 fold. Further, the “levels of total p38 protein” value in assay [5] (50 μM, up to 12 hours) is on record as “remained relatively unchanged”. In addition, in assay [5] (FIG. 8D), the “normalized increase in phosphorylation of p38 over control” value stood at 5.9 fold.
